ChEMBL document CHEMBL1142753, “Bioactive fluorinated derivative of amphotericin B” (Bioorg Med Chem Lett, 2005)

Key:
Aspergillus niger = test: Inhibitory effect of Amphotericin required for antifungal activity against Aspergillus niger; type: functional
[1] = Effective concentration of Amphotericin required for hemolytic activity against 1% human erythrocytes; type: functional

SMILES	Activity (Aspergillus niger)	EC50 [1]
CC1OC(O[C@H]2/C=C/C=C/C=C/C=C/C=C/C=C/C=C/[C@H](C)[C@@H](O)[C@@H](C)[C@H](C)OC(=O)C[C@H](O)C[C@H](O)CC[C@@H](O)[C@H](O)C[C@H](O)C[C@]3(O)C[C@H](O)[C@@H](C(=O)O)[C@H](C2)O3)C(O)C(NCc2ccc(F)cc2)C1O (stereo partly specified)	>50 µg	2.6 µM
CC1OC(O[C@H]2/C=C/C=C/C=C/C=C/C=C/C=C/C=C/[C@H](C)[C@@H](O)[C@@H](C)[C@H](C)OC(=O)C[C@H](O)C[C@H](O)CC[C@@H](O)[C@H](O)C[C@H](O)C[C@@]3(O)O[C@@H](C2)[C@H](C(=O)O)[C@@H](O)[C@@H]3F)C(O)C(N)C1O (stereo partly specified)	10 µg	1.3 µM
C[C@@H]1[C@H](O)[C@@H](C)/C=C/C=C/C=C/C=C/C=C/C=C/C=C/[C@H](O[C@@H]2O[C@H](C)[C@@H](O)[C@H](N)[C@@H]2O)C[C@@H]2O[C@](O)(C[C@@H](O)C[C@@H](O)[C@H](O)CC[C@@H](O)C[C@@H](O)CC(=O)O[C@H]1C)C[C@H](O)[C@H]2C(=O)O [AMPHOTERICIN B]	10 µg	1.4 µM
